How the values were obtained:
Escherichia coli = test: Molecular phenotypic antimicrobial susceptibility test (extraction or DNA purification prior to PCR); format: cell-based
Outline: (§1)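 Growth of clinical isolates under antimicrobials held at breakpoint concentrations was scored by semi-quantitative PCR against drug-free control wells. Exposure ran 12-16 hours from a 0.5 McFarland inoculum.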

M. morganii = test: Molecular phenotypic antimicrobial susceptibility test, specimen with two detected pathogens incubated together without isolation; format: cell-based, Morganella morganii; conditions: M. morganii in specimen with two detected pathogens (E. coli and M. morganii) incubated together
Outline: (§2)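 Specimen in boric acid; pathogens identified by PCR while a parallel aliquot grew 4-6 h in liquid medium. With >10,000 cells/mL detected, culture diluted to 0.5 McFarland and exposed to antimicrobials in broth (e.g. Mueller Hinton) at breakpoint concentrations; both pathogens incubated together unisolated, growth read by molecular methods against medium-only wells.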

E. coli = test: as above; format: cell-based, Escherichia coli; conditions: E. coli in specimen with two detected pathogens (E. coli and M. morganii) incubated together
Outline: as §2

[1] = tested on: pathogens of clinical samples; test: Molecular phenotypic antimicrobial susceptibility test of clinical samples, extraction DNA purification step prior to PCR (Table 6); format: cell-based
Outline: as §1

Substance: Trimethoprim/Sulfamethoxazole [TMP/SMX]
- Ct at Sensitive Breakpoint (Escherichia coli; E. coli isolate 1, Ct at control (average) 21.238): 32.294
- Molecular Antimicrobial Susceptibility Result (Escherichia coli; E. coli isolate 1, at sensitive breakpoint): Sensitive (Antimicrobial wells with pathogen load detected below the control wells (typically >2 cycle thresholds later) may be reported as Sensitive)
- Ct at Sensitive Breakpoint (Escherichia coli; E. coli isolate 2, Ct at control (average) 21.270): 28.875
- Molecular Antimicrobial Susceptibility Result (Escherichia coli; E. coli isolate 2, at sensitive breakpoint): Sensitive (Antimicrobial wells with pathogen load detected below the control wells (typically >2 cycle thresholds later) may be reported as Sensitive)
- Ct at Sensitive Breakpoint (Escherichia coli; E. coli isolate 3, Ct at control (average) 22.0995): 30.605
- Molecular Antimicrobial Susceptibility Result (Escherichia coli; E. coli isolate 3, at sensitive breakpoint): Sensitive (Antimicrobial wells with pathogen load detected below the control wells (typically >2 cycle thresholds later) may be reported as Sensitive)
- Molecular Antimicrobial Susceptibility Result (Escherichia coli; E. coli isolate 4, at sensitive breakpoint): Resistant
- Ct at Sensitive Breakpoint (Escherichia coli; E. coli isolate 5, Ct at control (average) 21.0933): 29.12
- Molecular Antimicrobial Susceptibility Result (Escherichia coli; E. coli isolate 5, at sensitive breakpoint): Sensitive (Antimicrobial wells with pathogen load detected below the control wells (typically >2 cycle thresholds later) may be reported as Sensitive)
- Ct of Sensitive Breakpoint (M. morganii; Ct of controls (average) 19.99): 32.93
- Molecular Antimicrobial Susceptibility Result (M. morganii; at sensitive breakpoint): Sensitive (Antimicrobial wells with pathogen load detected below the control wells (typically >2 cycle thresholds later) may be reported as Sensitive)
- Ct of Sensitive Breakpoint (E. coli; Ct of controls (average) 15.93): 27.67
- Molecular Antimicrobial Susceptibility Result (E. coli; at sensitive breakpoint): Sensitive (Antimicrobial wells with pathogen load detected below the control wells (typically >2 cycle thresholds later) may be reported as Sensitive)
- Molecular Antibiotic Susceptibility Result ([1]; E. coli, clinical sample of r10-r24): Sensitive (Antimicrobial wells with pathogen load detected below the control wells (typically >2 cycle thresholds later) may be reported as Sensitive)
- Ct ([1]; E. coli, clinical sample of r10-r24, Ct Control Avg 18.112): 28.072
- Molecular Antibiotic Susceptibility Result ([1]; E. coli, clinical sample of r158-r172): Sensitive (Antimicrobial wells with pathogen load detected below the control wells (typically >2 cycle thresholds later) may be reported as Sensitive)
- Ct ([1]; E. coli, clinical sample of r158-r172, Ct Control Avg 20.146): 33.402
- Molecular Antibiotic Susceptibility Result ([1]; K. aerogenes, clinical sample of r136-r150): Sensitive (Antimicrobial wells with pathogen load detected below the control wells (typically >2 cycle thresholds later) may be reported as Sensitive)
- Ct ([1]; K. aerogenes, clinical sample of r136-r150, Ct Control Avg 19.994): 36.5
- Molecular Antibiotic Susceptibility Result ([1]; K. pneumoniae, clinical sample of r121-r135): Sensitive (Antimicrobial wells with pathogen load detected below the control wells (typically >2 cycle thresholds later) may be reported as Sensitive)
- Ct ([1]; K. pneumoniae, clinical sample of r121-r135, Ct Control Avg 24.272): 34.918
- Molecular Antibiotic Susceptibility Result ([1]; M. morganii, clinical sample of r55-r69): Sensitive (Antimicrobial wells with pathogen load detected below the control wells (typically >2 cycle thresholds later) may be reported as Sensitive)
- Ct ([1]; M. morganii, clinical sample of r55-r69, Ct Control Avg 28.86): Undet
- Molecular Antibiotic Susceptibility Result ([1]; M. morganii, clinical sample of r70-r84): Sensitive (Antimicrobial wells with pathogen load detected below the control wells (typically >2 cycle thresholds later) may be reported as Sensitive)
- Ct ([1]; M. morganii, clinical sample of r70-r84, Ct Control Avg 27.053): 30.225
- Molecular Antibiotic Susceptibility Result ([1]; P. mirabilis, clinical sample of r25-r39): Sensitive (Antimicrobial wells with pathogen load detected below the control wells (typically >2 cycle thresholds later) may be reported as Sensitive)
- Ct ([1]; P. mirabilis, clinical sample of r25-r39, Ct Control Avg 26.064): 30.865
- Molecular Antibiotic Susceptibility Result ([1]; P. mirabilis, clinical sample of r40-r54): Sensitive (Antimicrobial wells with pathogen load detected below the control wells (typically >2 cycle thresholds later) may be reported as Sensitive)
- Ct ([1]; P. mirabilis, clinical sample of r40-r54, Ct Control Avg 26.987): 33.833
- Molecular Antibiotic Susceptibility Result ([1]; S. aureus, clinical sample of r85-r92): Sensitive (Antimicrobial wells with pathogen load detected below the control wells (typically >2 cycle thresholds later) may be reported as Sensitive)
- Ct ([1]; S. aureus, clinical sample of r85-r92, Ct Control Avg 24.32): 27.399

Reference: patent US20250290117A1, “MOLECULAR PHENOTYPIC ANTIMICROBIAL SUSCEPTIBILITY TESTING” (priority 2024, published 2025)
